Tests used:
in vivo [1] = conditions: Sprague-Dawley, rat, iv, 1 mg/kg
in vivo [2] = conditions: Sprague-Dawley, rat, iv, 1 mg/kg; remark: listed apart in the source
in vivo [3] = conditions: Sprague-Dawley, rat, iv, 1 mg/kg; remark: listed apart in the source
in vivo [4] = conditions: Sprague-Dawley, rat, iv, 1 mg/kg; remark: listed apart in the source
in vivo [5] = conditions: Sprague-Dawley, rat, po, 10 mg/kg
in vivo [6] = conditions: Sprague-Dawley, rat, po, 10 mg/kg; remark: listed apart in the source

Compound: C=CC(=O)Nc1cccc(-n2c(=O)c(C3CCCCC3)nc3cnc(Nc4cccc(OCCOC)c4)nc32)c1
- half-life (in vivo [1]): 26.4 min
- clearance (in vivo [2]): 58.2 mL/min/kg
- AUC(0-t) (in vivo [3]): 290 ng·h/mL
- Vd (in vivo [4]): 1.16 L/kg
- AUC(0-t) (in vivo [5]): 66.9 ng·h/mL
- bioavailability (in vivo [6]): 2.31%

Reference: ChEMBL document CHEMBL5042540, “Discovery of Pteridine-7(8H)-one Derivatives as Potent and Selective Inhibitors of Bruton's Tyrosine Kinase (BTK)” (J Med Chem, 2022)
